Twelve compounds from PubChem BioAssay (NCI) can be followed below.

The structures appear in SMILES notation.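 Five compound concentrations were applied to cells in 96-well plates for 48 hours; endpoints were derived by simple linear interpolation of the resulting dose-response curve. The concentration for 50% growth inhibition is given as GI50. TGI: total growth inhibition.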

Some test systems named below: LOX IMVI melanoma; SNB-19 CNS; HCT-116 colon; SK-MEL-28 melanoma; SF-295 CNS; SW-620 colon; TK-10 renal; NCI-H23 lung; MCF7 breast; HS 578T breast.
Holding throughout (experiment): NCI anticancer screen, dose series, 48 h

`O=C(Cc1ccccc1)C(c1ccccc1)S(=O)(=O)c1ccccc1` (configuration not stated): the TGI with LOX IMVI melanoma, in the test with SNB-19 CNS, with HCT-116 colon, in the test with SK-MEL-28 melanoma, in the test on SF-295 CNS and in the test on SW-620 colon was over 100 µM each time. Besides, the TGI with TK-10 renal and with NCI-H23 lung was over 100 µM each time.

As for `O=C1C(Sc2ccc3ccccc3c2)=C(Sc2ccc3ccccc3c2)C(=O)c2ccccc21`, the TGI in the test with LOX IMVI melanoma was found to be 47.8 µM; in the test on SNB-19 CNS, 20.3 µM; in the test on HCT-116 colon it was 20.2 µM; in the test with SK-MEL-28 melanoma, 28.5 µM; in the test with MCF7 breast it was 40.2 µM; in the test with SW-620 colon, 16.5 µM. Besides, the TGI in the test with NCI-H23 lung is 22.1 µM; in the test with HS 578T breast it was 62.3 µM.

Take `CC(N)CC(=O)O` (configuration not stated): the TGI with HCT-116 colon, with SK-MEL-28 melanoma, in the test on SF-295 CNS, in the test with SW-620 colon, with TK-10 renal and with NCI-H23 lung was over 5000 µM each time.

`c1ccc(-c2csc3ncn4cnnc4c23)cc1`: the TGI in the test on LOX IMVI melanoma, with SNB-19 CNS, in the test on HCT-116 colon, with SK-MEL-28 melanoma, in the test on SF-295 CNS and with SW-620 colon was over 100 µM throughout. Also, the TGI with TK-10 renal and with NCI-H23 lung was over 100 µM each time.

For `C[C@@H](NC(=O)c1ccc(F)cc1)c1ccc2c(c1)CCN2C(=O)C1CCOCC1`, the GI50 with LOX IMVI melanoma, in the test with HCT-116 colon, in the test on SK-MEL-28 melanoma, in the test on SF-295 CNS, in the test on MCF7 breast and in the test on SW-620 colon was over 100 µM throughout. Further, the GI50 with NCI-H23 lung and with HS 578T breast was over 100 µM in each case. In addition, the TGI in the test with LOX IMVI melanoma, in the test with HCT-116 colon, in the test on SK-MEL-28 melanoma, with SF-295 CNS, in the test on MCF7 breast and with SW-620 colon was over 100 µM each time. Also, the TGI in the test with NCI-H23 lung and in the test on HS 578T breast was over 100 µM each time.

`C=C1C(=O)O[C@H]2[C@H]1CC/C(COC(=O)NCc1c[nH]c3ccc(F)cc13)=C\CC[C@@]1(C)O[C@@H]21`: the GI50 with LOX IMVI melanoma was 0.952 µM; with SNB-19 CNS, 6.56 µM; with HCT-116 colon it was 0.703 µM; in the test on SK-MEL-28 melanoma it was 1.63 µM; in the test on SF-295 CNS, 4.29 µM; in the test on SW-620 colon, 0.619 µM. The GI50 with TK-10 renal is 1.58 µM; with NCI-H23 lung it was 1.83 µM; in the test with HS 578T breast, 3.36 µM. Moreover, the TGI was determined as 2.28 µM in the test on LOX IMVI melanoma; 20 µM in the test with SNB-19 CNS; 2.04 µM with HCT-116 colon; 3.24 µM in the test with SK-MEL-28 melanoma; 16.6 µM in the test with SF-295 CNS; 2.65 µM with SW-620 colon. The figures for the TGI in the test on TK-10 renal, in the test with NCI-H23 lung and in the test with HS 578T breast were 3 µM, 3.89 µM and 26.6 µM, respectively.

`CCOC(=O)C(CCCNC(=O)OC(C)(C)C)N(Cc1ccc(OC)cc1OC)C(=O)CC(=O)CP(=O)(OCC)OCC` (configuration not stated): the TGI in the test with LOX IMVI melanoma, in the test with SNB-19 CNS, in the test with HCT-116 colon, in the test with SK-MEL-28 melanoma, with SF-295 CNS and in the test with TK-10 renal was over 100 µM each time. The compound further yielded a TGI in the test with NCI-H23 lung of over 100 µM.

As to `COc1ccc(-c2c3c(N)c4c(nc3nc3c2c(C)nn3-c2ccccc2)CCCC4)cc1`, the GI50 is 12 µM in the test on LOX IMVI melanoma; 10.8 µM in the test with SNB-19 CNS; 2.15 µM with HCT-116 colon; 6.75 µM with SK-MEL-28 melanoma; 10.1 µM in the test on SF-295 CNS; 2.57 µM in the test on MCF7 breast. The GI50 with SW-620 colon is 3.05 µM; with HS 578T breast, 12.5 µM. Moreover, the TGI in the test with LOX IMVI melanoma is 27 µM; in the test on SNB-19 CNS, 26.8 µM; in the test with HCT-116 colon it was 5.48 µM; in the test with SK-MEL-28 melanoma it was 24.3 µM; in the test on SF-295 CNS, 23.3 µM; in the test with MCF7 breast, 8.88 µM. Besides, the TGI was determined as 11.8 µM in the test with SW-620 colon and 37.2 µM with HS 578T breast.

Regarding `COc1cc(/C=C/C(=O)O[C@H]2[C@H](O[C@@H]3O[C@@H](C)[C@H](O)[C@@H](O)[C@H]3O)[C@@H](O)[C@H](OCCc3ccc(O)c(O)c3)O[C@@H]2COC2OCC(O)(CO)C2O)ccc1O` (some centres not stated), the GI50 in the test on LOX IMVI melanoma was 21.6 µM; in the test with SNB-19 CNS it was over 100 µM; in the test on HCT-116 colon it was over 100 µM; with SK-MEL-28 melanoma it was over 100 µM; in the test on SF-295 CNS, over 100 µM; in the test with SW-620 colon it was 20.1 µM. Further, the GI50 with TK-10 renal is over 100 µM; in the test on HS 578T breast, 67.6 µM. Further, the TGI is 53.6 µM in the test on LOX IMVI melanoma; over 100 µM in the test with SNB-19 CNS; over 100 µM in the test with HCT-116 colon; over 100 µM in the test with SK-MEL-28 melanoma; over 100 µM in the test on SF-295 CNS; 46 µM with SW-620 colon. Further, the TGI in the test with TK-10 renal and in the test with HS 578T breast was over 100 µM each time.

Take `c1ccc2c(CNCCN3CCNCC3)c3ccccc3c(CNCCN3CCNCC3)c2c1`: the GI50 is 12.9 µM in the test on LOX IMVI melanoma; 20.7 µM with SNB-19 CNS; 13.3 µM in the test with HCT-116 colon; 42.8 µM with SK-MEL-28 melanoma; 17.8 µM in the test on SF-295 CNS; 11.5 µM in the test with MCF7 breast. Moreover, the GI50 is 16.4 µM with SW-620 colon, 19.7 µM in the test with TK-10 renal and 16 µM in the test with NCI-H23 lung. Also, the TGI in the test on LOX IMVI melanoma is 29.5 µM; with SNB-19 CNS it was over 100 µM; in the test with HCT-116 colon it was 29.5 µM; in the test with SK-MEL-28 melanoma, over 100 µM; in the test with SF-295 CNS, 43.5 µM; with MCF7 breast, 50.2 µM. The TGI in the test on SW-620 colon worked out at 49.3 µM; in the test on TK-10 renal, 79.8 µM; with NCI-H23 lung it was 54.1 µM.

For `C/C(=N\NC(=O)C(N)=O)c1c(O)cc(C)oc1=O`, the TGI in the test on LOX IMVI melanoma, in the test with SNB-19 CNS, in the test with HCT-116 colon, with SK-MEL-28 melanoma, in the test with SF-295 CNS and with SW-620 colon was over 100 µM throughout. Besides, the TGI with TK-10 renal and with NCI-H23 lung was over 100 µM in each case.

For the compound `C=C1C=CC2(Br)OC3CC(C)(Cl)C(Br)CC13C2(C)C` (configuration not stated), the TGI in the test on LOX IMVI melanoma was found to be 33.8 µM; in the test on SNB-19 CNS, 88.3 µM; with HCT-116 colon it was 28.5 µM; in the test with SK-MEL-28 melanoma, 54.4 µM; in the test with SF-295 CNS, 45.5 µM; in the test with SW-620 colon it was 56 µM. For the same compound, the figures for the TGI in the test on TK-10 renal and in the test on NCI-H23 lung were over 100 µM and 39.2 µM, respectively.
